Source: PubChem BioAssay AID1259407 (Chemical Carcinogenesis Research Information System (CCRIS), 2018)
Activity calls are given as the source filed them. No rule for the calls is given here.

Tested on: CCRIS mutagenicity, Ames/micronucleus/aberration tests
Test: CCRIS mutagenicity studies

Compound: Nc1ccc(-c2ccc(N)cc2)cc1
- mutagenic call (End Point: IN VITRO CHROMOSOMAL ABERRATIONS, Test System: CHINESE HAMSTER OVARY CELLS, Metabolic Activation: NONE): inactive; negative
- mutagenic call (End Point: IN VITRO CHROMOSOMAL ABERRATIONS, Test System: CHINESE HAMSTER OVARY CELLS, Metabolic Activation: RAT, LIVER, S-9, AROCLOR 1254): active; positive
- mutagenic call (Test System: AMES SALMONELLA TYPHIMURIUM, Strain/Indicator: DJ400, Metabolic Activation: HUMAN, HEPATOMA CELLS, BENZO[A]ANTHRACENE, Method: PREINCUBATION): active; positive
- mutagenic call (Test System: AMES SALMONELLA TYPHIMURIUM, Strain/Indicator: DJ400, Metabolic Activation: HUMAN, HEPATOMA CELLS, Method: PREINCUBATION): active; positive
- mutagenic call (Test System: AMES SALMONELLA TYPHIMURIUM, Strain/Indicator: DJ400, Metabolic Activation: RAT, LIVER, S-9, AROCLOR 1254, Method: PREINCUBATION): active; positive
- mutagenic call (Test System: AMES SALMONELLA TYPHIMURIUM, Strain/Indicator: DJ400, Metabolic Activation: RAT, LIVER, S-9, Method: PREINCUBATION): active; positive
- mutagenic call (Test System: AMES SALMONELLA TYPHIMURIUM, Strain/Indicator: DJ400, Metabolic Activation: TOBACCO TX1 CELLS, Method: PREINCUBATION): inactive; negative
- mutagenic call (Test System: AMES SALMONELLA TYPHIMURIUM, Strain/Indicator: DJ460, Metabolic Activation: HUMAN, HEPATOMA CELLS, BENZO[A]ANTHRACENE, Method: PREINCUBATION): active; positive
- mutagenic call (Test System: AMES SALMONELLA TYPHIMURIUM, Strain/Indicator: DJ460, Metabolic Activation: HUMAN, HEPATOMA CELLS, Method: PREINCUBATION): active; positive
- mutagenic call (Test System: AMES SALMONELLA TYPHIMURIUM, Strain/Indicator: DJ460, Metabolic Activation: RAT, LIVER, S-9, AROCLOR 1254, Method: PREINCUBATION): active; positive
- mutagenic call (Test System: AMES SALMONELLA TYPHIMURIUM, Strain/Indicator: DJ460, Metabolic Activation: RAT, LIVER, S-9, Method: PREINCUBATION): active; positive
- mutagenic call (Test System: AMES SALMONELLA TYPHIMURIUM, Strain/Indicator: DJ460, Metabolic Activation: TOBACCO CELL-FREE EXTRACT, Method: PREINCUBATION): active; positive
- mutagenic call (Test System: AMES SALMONELLA TYPHIMURIUM, Strain/Indicator: DJ460, Metabolic Activation: TOBACCO TX1 CELLS, Method: PREINCUBATION): active; positive
- mutagenic call (Test System: AMES SALMONELLA TYPHIMURIUM, Strain/Indicator: MP110, Metabolic Activation: TOBACCO TX1 CELLS, Method: PREINCUBATION): inactive; negative
- mutagenic call (Test System: AMES SALMONELLA TYPHIMURIUM, Strain/Indicator: MP120, Metabolic Activation: TOBACCO TX1 CELLS, Method: PREINCUBATION): inactive; negative
- mutagenic call (Test System: AMES SALMONELLA TYPHIMURIUM, Strain/Indicator: MP208, Metabolic Activation: TOBACCO CELL-FREE TXIMX, Method: PREINCUBATION): active; positive
- mutagenic call (Test System: AMES SALMONELLA TYPHIMURIUM, Strain/Indicator: MP219, Metabolic Activation: TOBACCO CELL-FREE TXIMX, Method: PREINCUBATION): active; positive
- mutagenic call (Test System: AMES SALMONELLA TYPHIMURIUM, Strain/Indicator: SV50, Metabolic Activation: HAMSTER, LIVER, S-9, Method: STANDARD PLATE): inactive; negative
- mutagenic call (Test System: AMES SALMONELLA TYPHIMURIUM, Strain/Indicator: SV50, Metabolic Activation: NONE, Method: PREINCUBATION (PRIVAL METHOD)): active; positive
- mutagenic call (Test System: AMES SALMONELLA TYPHIMURIUM, Strain/Indicator: SV50, Metabolic Activation: RAT, LIVER, S-9, AROCLOR 1254, Method: STANDARD PLATE): inactive; negative
- mutagenic call (Test System: AMES SALMONELLA TYPHIMURIUM, Strain/Indicator: TA98(1,8-DNP6), Metabolic Activation: NONE, Method: PREINCUBATION): inactive; negative
- mutagenic call (Test System: AMES SALMONELLA TYPHIMURIUM, Strain/Indicator: TA98(1,8-DNP6), Metabolic Activation: NONE, Method: STANDARD PLATE): inactive; negative
- mutagenic call (Test System: AMES SALMONELLA TYPHIMURIUM, Strain/Indicator: TA98(1,8-DNP6), Metabolic Activation: PLANT CELLS, Method: PREINCUBATION): active; positive
- mutagenic call (Test System: AMES SALMONELLA TYPHIMURIUM, Strain/Indicator: TA98(1,8-DNP6), Metabolic Activation: S-9, Method: STANDARD PLATE): inactive; negative
- mutagenic call (Test System: AMES SALMONELLA TYPHIMURIUM, Strain/Indicator: TA98(1,8-DNP6), Metabolic Activation: TOBACCO CELL-FREE TXIMX, Method: PREINCUBATION): inactive; negative
- mutagenic call (Test System: AMES SALMONELLA TYPHIMURIUM, Strain/Indicator: TA98(NR), Metabolic Activation: TOBACCO CELL-FREE TXIMX, Method: PREINCUBATION): active; positive
- mutagenic call (Test System: AMES SALMONELLA TYPHIMURIUM, Strain/Indicator: TA98, Metabolic Activation: HAMSTER, LIVER, S-9, Method: PREINCUBATION): active; positive
- mutagenic call (Test System: AMES SALMONELLA TYPHIMURIUM, Strain/Indicator: TA98, Metabolic Activation: HAMSTER, LIVER, S-9, Method: PREINCUBATION (PRIVAL METHOD)): active; positive
- mutagenic call (Test System: AMES SALMONELLA TYPHIMURIUM, Strain/Indicator: TA98, Metabolic Activation: HAMSTER, LIVER, S-9, Method: STANDARD PLATE): active; positive
- mutagenic call (Test System: AMES SALMONELLA TYPHIMURIUM, Strain/Indicator: TA98, Metabolic Activation: HUMAN, HEPATOMA CELLS, BENZO[A]ANTHRACENE, Method: PREINCUBATION): active; positive
- mutagenic call (Test System: AMES SALMONELLA TYPHIMURIUM, Strain/Indicator: TA98, Metabolic Activation: HUMAN, HEPATOMA CELLS, Method: PREINCUBATION): active; positive
- mutagenic call (Test System: AMES SALMONELLA TYPHIMURIUM, Strain/Indicator: TA98, Metabolic Activation: MOUSE, LIVER, S-9, Method: STANDARD PLATE): active; positive
- mutagenic call (Test System: AMES SALMONELLA TYPHIMURIUM, Strain/Indicator: TA98, Metabolic Activation: NONE, Method: PREINCUBATION): inactive; negative
- mutagenic call (Test System: AMES SALMONELLA TYPHIMURIUM, Strain/Indicator: TA98, Metabolic Activation: NONE, Method: STANDARD PLATE): inactive; negative
- mutagenic call (Test System: AMES SALMONELLA TYPHIMURIUM, Strain/Indicator: TA98, Metabolic Activation: PLANT CELLS, Method: PREINCUBATION): active; positive
- mutagenic call (Test System: AMES SALMONELLA TYPHIMURIUM, Strain/Indicator: TA98, Metabolic Activation: RAT LIVER S-9, AROCLOR 1254, Method: PREINCUBATION): active; positive
- mutagenic call (Test System: AMES SALMONELLA TYPHIMURIUM, Strain/Indicator: TA98, Metabolic Activation: RAT, BLADDER, S-9, PCB, Method: FLUCTUATION TEST): inactive; negative
- mutagenic call (Test System: AMES SALMONELLA TYPHIMURIUM, Strain/Indicator: TA98, Metabolic Activation: RAT, LIVER, S-9, AROCLOR 1254, Method: PREINCUBATION): active; positive
- mutagenic call (Test System: AMES SALMONELLA TYPHIMURIUM, Strain/Indicator: TA98, Metabolic Activation: RAT, LIVER, S-9, AROCLOR 1254, Method: STANDARD PLATE): active; positive
- mutagenic call (Test System: AMES SALMONELLA TYPHIMURIUM, Strain/Indicator: TA98, Metabolic Activation: RAT, LIVER, S-9, PHENOBARBITAL, Method: STANDARD PLATE): active; positive
- mutagenic call (Test System: AMES SALMONELLA TYPHIMURIUM, Strain/Indicator: TA98, Metabolic Activation: RAT, LIVER, S-9, Method: PREINCUBATION): active; positive
- mutagenic call (Test System: AMES SALMONELLA TYPHIMURIUM, Strain/Indicator: TA98, Metabolic Activation: S-9, Method: STANDARD PLATE): active; positive
- mutagenic call (Test System: AMES SALMONELLA TYPHIMURIUM, Strain/Indicator: TA98, Metabolic Activation: TOBACCO CELL-FREE TXIMX, Method: PREINCUBATION): active; positive
- mutagenic call (Test System: AMES SALMONELLA TYPHIMURIUM, Strain/Indicator: TA100(NR), Metabolic Activation: TOBACCO CELL-FREE TXIMX, Method: PREINCUBATION): inactive; negative
- mutagenic call (Test System: AMES SALMONELLA TYPHIMURIUM, Strain/Indicator: TA100(TN:OAT), Metabolic Activation: TOBACCO CELL-FREE TXIMX, Method: PREINCUBATION): inactive; negative
- mutagenic call (Test System: AMES SALMONELLA TYPHIMURIUM, Strain/Indicator: TA100, Metabolic Activation: HUMAN, LIVER, S-9, Method: STANDARD PLATE): active; positive
- mutagenic call (Test System: AMES SALMONELLA TYPHIMURIUM, Strain/Indicator: TA100, Metabolic Activation: NONE, Method: PREINCUBATION): inactive; negative
- mutagenic call (Test System: AMES SALMONELLA TYPHIMURIUM, Strain/Indicator: TA100, Metabolic Activation: NONE, Method: STANDARD PLATE): inactive; negative
- mutagenic call (Test System: AMES SALMONELLA TYPHIMURIUM, Strain/Indicator: TA100, Metabolic Activation: RAT LIVER S-9, AROCLOR 1254, Method: PREINCUBATION): inactive; negative
